The subject of one assay is SK-MEL-28. The assay can be described thus: Cytotoxicity against human SK-MEL-28 cells after 72 hrs by MTS assay. The class given is functional, cell-based. To be noted: SK-MEL-28, 72 h.
Assay [1] can be described thus: Cytotoxicity against human JMAR cells after 72 hrs by MTS assay. The class given is functional, cell-based.
The test system of a further assay is MDA-MB-231. The experiment in a line: Cytotoxicity against human MDA-MB-231 cells after 72 hrs by MTS assay. The class given is functional, cell-based. Particulars: MDA-MB-231, 72 h.
Assay [2] in a line: Cytotoxicity against human DRO 81-1 cells after 72 hrs by MTS assay. It is filed as functional, cell-based.
A further assay deals with MRC5. The experiment in a line: Cytotoxicity against human MRC5 cells after 72 hrs by MTS assay. The class given is cell-based. To be noted: MRC5, 72 h.

As to `CC1=C(CO)C(=O)O[C@@H]([C@@H](C)[C@H]2CC[C@H]3[C@@H]4C[C@H]5O[C@]56[C@@H](O)C=CC(=O)[C@]6(C)[C@H]4CC[C@]23C)C1` [WITHAFERIN A], the IC50 in the assay on SK-MEL-28 stood at 1000 nM; in assay [1] it was 1000 nM; with MDA-MB-231, 540 nM; in assay [2], 780 nM; in the assay with MRC5, 2700 nM.
